Series [1] has as its target T1, human Notum (81–451 Cys330Ser) (Homo sapiens, UniProt Q6P988, C330S).
T1 construct: human Notum (81–451 Cys330Ser) as the enzyme; made in house
T1 sequence (Q6P988 81-451 C330S): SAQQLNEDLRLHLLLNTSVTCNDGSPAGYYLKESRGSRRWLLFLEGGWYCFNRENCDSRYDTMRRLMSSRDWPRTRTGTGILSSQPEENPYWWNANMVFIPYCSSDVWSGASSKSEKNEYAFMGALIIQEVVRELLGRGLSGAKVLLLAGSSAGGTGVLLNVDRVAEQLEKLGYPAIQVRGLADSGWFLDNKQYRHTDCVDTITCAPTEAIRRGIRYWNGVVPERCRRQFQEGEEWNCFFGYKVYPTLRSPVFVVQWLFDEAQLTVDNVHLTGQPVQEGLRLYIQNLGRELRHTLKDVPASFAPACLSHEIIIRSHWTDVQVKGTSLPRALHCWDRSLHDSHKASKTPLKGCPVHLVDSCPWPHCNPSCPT
The series can be described thus: Notum OPTS biochemical assay. To be noted: for IC50: mean. An excerpt:
The optimization of 6 to deliver this profile was directed at three principle areas of these hit structures: (1) aryl ring 7 (Table 1); (2) the C4 substituent on triazole 8 (Table 2); and (3) further fine-tuning of the triazole 9 (Table 3). […] This assay was used to establish SAR and to identify preferred leads for additional studies.
Methods have been described in detail elsewhere.[23]−[26] Representative concentration–response curves are provided in the Supporting Information.

The nature of the next series: in vitro. As to conditions: pH 7.4. The protocol: G. Plasma protein binding (PPB):
Method: rapid equilibrium dialysis.
Test System Mouse Plasma (K2EDTA)
Test compound concentration 10 µM (mouse) or 2 µM (rat)

A further series has as its target T2, Notum (Homo sapiens, UniProt Q6P988).
T2 sequence (Q6P988 20-496): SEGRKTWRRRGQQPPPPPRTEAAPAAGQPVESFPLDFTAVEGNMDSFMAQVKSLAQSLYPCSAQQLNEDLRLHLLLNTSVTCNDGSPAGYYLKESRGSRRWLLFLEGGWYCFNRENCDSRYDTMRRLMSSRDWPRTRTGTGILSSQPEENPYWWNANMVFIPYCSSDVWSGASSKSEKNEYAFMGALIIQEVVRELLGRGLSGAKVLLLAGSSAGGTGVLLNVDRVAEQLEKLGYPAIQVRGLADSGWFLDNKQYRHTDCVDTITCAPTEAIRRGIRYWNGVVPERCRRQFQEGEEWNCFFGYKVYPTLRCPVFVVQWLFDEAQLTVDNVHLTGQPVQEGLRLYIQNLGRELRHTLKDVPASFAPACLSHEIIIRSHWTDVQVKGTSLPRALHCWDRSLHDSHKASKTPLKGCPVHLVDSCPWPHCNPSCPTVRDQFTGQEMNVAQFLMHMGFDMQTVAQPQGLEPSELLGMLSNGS
The series can be described thus: ABPP-TMT (FP-biotin) proteomic analysis in SW620 cells.

Where [2] appears, read: OPTS substrate, read-out: Notum IC50.
Setting [3] is: SW620 conditioned media, 1e-8 M.
Where [4] appears, read: SW620 conditioned media, 3e-8 M.
Setting [5] is: SW620 conditioned media, 1e-7 M.
[6] abbreviates: SW620 conditioned media, 3e-7 M.
Where [7] appears, read: SW620 conditioned media, 1e-6 M.
Setting [8] is: SW620 conditioned media, 3e-6 M.
Setting [9] is: SW620 conditioned media, 1e-5 M.

Structures are written as SMILES. Values joined by “and” are separate entries in the source; they are usually repeats but may differ in a detail not shown here. Equal values may be shown once. Where a name gives a salt, the structure may show the parent alone. Read-outs that look alike come from different tables or passages of the source.

Regarding `OCc1cn(-c2cccc(F)c2)nn1` [7d, ((3-Fluorophenyl)-1H-1,2,3-triazol-4-yl)methanol], the concentration for half-maximal inhibition (IC50) (in general, the point on the concentration scale where inhibition reaches its midpoint) in series [1] (setting [2]) was found to be 25 ± 3 µM.
On the same count and under the same terms, under `Cc1ccc(-n2cc(CO)nn2)cc1` [7k, ((4-Methylphenyl)-1H-1,2,3-triazol-4-yl)methanol] stands 13 ± 2 µM.
The same measure, in the same setting: the figure for `OCCCc1cn(-c2ccc(Cl)c(C(F)(F)F)c2Cl)nn1` [8c, 3-(1-(2,4-Dichloro-3-(trifluoromethyl)phenyl)-1H-1,2,3-triazol-4-yl)propan-1-ol] is 1.8 ± 0.5 µM; for `CNC(=O)c1cn(-c2ccc(Cl)c(C(F)(F)F)c2Cl)nn1` [8h, 1-(2,4-Dichloro-3-(trifluoromethyl)phenyl)-N-methyl-1H-1,2,3-triazole-4-carboxamide] it is 2.3 ± 0.22 µM.
Still for that read-out and setting: under `CC(O)c1cn(-c2ccc(Cl)c(C(F)(F)F)c2Cl)nn1` (stereo not drawn) [8a, 1-(1-(2,4-Dichloro-3-(trifluoromethyl)phenyl)-1H-1,2,3-triazol-4-yl)ethan-1-ol] stands 1.8 ± 1 µM.
In the case of `NC(=O)c1cn(-c2ccc(Cl)c(C(F)(F)F)c2Cl)nn1` [8g, 1-(2,4-Dichloro-3-(trifluoromethyl)phenyl)-1H-1,2,3-triazole-4-carboxamide], in series [1] (setting [2]), the concentration for half-maximal inhibition (IC50) came to 1.2 ± 0.3 µM.
In the case of `N#Cc1ccc(-n2cc(CO)nn2)cc1` [7m, ((4-Cyanophenyl)-1H-1,2,3-triazol-4-yl)methanol], the concentration for half-maximal inhibition (IC50) in series [1] (setting [2]) came to 270 ± 310 µM.
For the molecule `O=C(O)c1cn(-c2ccc(Cl)c(C(F)(F)F)c2Cl)nn1` [8f, 1-(2,4-Dichloro-3-(trifluoromethyl)phenyl)-1H-1,2,3-triazole-4-carboxylic Acid], the IC50 in series [1] (setting [2]) amounted to 0.031 ± 0.01 µM.
As to `COCc1cn(-c2ccc(Cl)c(C(F)(F)F)c2Cl)nn1` [8j, 1-(2,4-Dichloro-3-(trifluoromethyl)phenyl)-4-(methoxymethyl)-1H-1,2,3-triazole], in series [1] (setting [2]), the half-maximal inhibitory concentration (IC50) is 0.2 ± 0.05 µM.
The same measure, in the same setting: under `OCc1cn(-c2ccccc2)nn1` [7a, (1-Phenyl-1H-1,2,3-triazol-4-yl)methanol] stands 110 ± 30 µM.
On to `CC(O)Cc1cn(-c2ccc(Cl)c(C(F)(F)F)c2Cl)nn1` (stereo not drawn) [8d, 1-(1-(2,4-Dichloro-3-(trifluoromethyl)phenyl)-1H-1,2,3-triazol-4-yl)propan-2-ol], for which the half-maximal inhibitory concentration (IC50) in series [1] (Notum IC50, OPTS substrate) was over 1 µM; in series [1] (setting [2]), 1.7 ± 1.4 µM.
With `OCc1cn(-c2ccc(F)cc2)nn1` [7j, ((4-Fluorophenyl)-1H-1,2,3-triazol-4-yl)methanol], the “% I” value in series [1] (@100 μM) is reported as “c 40–50% I@100 μM”. The IC50 in series [1] (setting [2]) is ~100 µM and 100 µM.
For `FC(F)(F)c1c(Cl)ccc(-n2cnnc2)c1Cl` [9a, 4-(2,4-Dichloro-3-(trifluoromethyl)phenyl)-4H-1,2,4-triazole], the 50% inhibitory concentration (IC50) in series [1] (setting [2]) was 1.3 ± 0.21 µM.
Regarding `CC(=O)CC(c1ccccc1)c1c(O)c2ccccc2oc1=O` (stereo not drawn) [Warfarin, reference compound], the recovery at 4 h, 2 µM in “in vitro” (SD, rat) turned out to be 100%. Further, the fraction unbound (as a rule, the share of the substance not bound to proteins or other matrix) at 4 h, 2 µM in the series “in vitro” (SD, rat, plasma) stood at 0.0063. The molecule further showed a recovery at 5 h, 10 µM in “in vitro” (mouse) of 103%. In addition, in “in vitro” (mouse, plasma, 5 h, 10 µM), the “Plasma protein binding (PPB), % bound” value turned out to be 95.71%. This molecule came in with a free fraction (fraction unbound) at 5 h, 10 µM in the series “in vitro” (mouse, plasma) of 0.0429.
`OCc1cn(-c2ccc(C(F)(F)F)c(C(F)(F)F)c2)nn1` [7v, ((3,4-Bis(trifluoromethyl)phenyl)-1H-1,2,3-triazol-4-yl)methanol]: the IC50 in series [1] (setting [2]) turned out to be 2.2 ± 4.4 µM.
On the same count and under the same terms, under `OC1(Cc2cn(-c3ccc(Cl)c(C(F)(F)F)c3Cl)nn2)COC1` [8e, 3-((1-(2,4-Dichloro-3-(trifluoromethyl)phenyl)-1H-1,2,3-triazol-4-yl)methyl)oxetan-3-ol] stands 7.4 ± 1.1 µM; under `N#Cc1cccc(-n2cc(CO)nn2)c1` [7h, ((3-Cyanophenyl)-1H-1,2,3-triazol-4-yl)methanol], 83 ± 36 µM; under `FC(F)(F)c1c(Cl)ccc(-n2cnnn2)c1Cl` [9b, 1-(2,4-Dichloro-3-(trifluoromethyl)phenyl)-1H-tetrazole], 0.14 ± 0.02 µM.
Consider `O=C(O)CSc1ncnc2c(C3CC3)c(Cl)sc12` [compound 1, LP-922056, reference compound], for which the “NOTUM intensity normalised to DMSO” value on Notum (setting [3]) is reported as 1.677; on Notum (setting [4]), 1.111; on Notum (setting [5]) it was 1.2088; on Notum (setting [6]) it was 0.5634; at Notum (setting [7]) it was 0.3108; at Notum (setting [8]) it was 0.1718. Also, the “NOTUM intensity normalised to DMSO” value at Notum (setting [9]) is given as 0.112; at Notum (SW620 lysate, 1e-8 M), 0.811; on Notum (SW620 lysate, 3e-8 M), 0.6714; at Notum (SW620 lysate, 1e-7 M), 0.5739; on Notum (SW620 lysate, 3e-7 M), 0.495; on Notum (SW620 lysate, 1e-6 M) it was 0.3711. Moreover, the “NOTUM intensity normalised to DMSO” value on Notum (SW620 lysate, 3e-6 M) amounted to 0.4727; on Notum (SW620 lysate, 1e-5 M), 0.5374.
Take `NCc1cn(-c2ccc(Cl)c(C(F)(F)F)c2Cl)nn1` [8i, (1-(2,4-Dichloro-3-(trifluoromethyl)phenyl)-1H-1,2,3-triazol-4-yl)methanamine Hydrochloride]: in series [1] (setting [2]), the 50% inhibitory concentration (IC50) amounted to 0.91 ± 0.12 µM. The “NOTUM intensity normalised to DMSO” value on Notum (setting [3]) is given as 1.002; on Notum (setting [4]) it was 0.8137; on Notum (setting [5]), 0.7326; at Notum (setting [6]), 0.3649; at Notum (setting [7]), 0.1945; on Notum (setting [8]), 0.1349. Besides, the “NOTUM intensity normalised to DMSO” value at Notum (setting [9]) is 0.07262; on Notum (SW620 lysate, 1e-8 M), 1.016; at Notum (SW620 lysate, 3e-8 M) it was 0.7635; on Notum (SW620 lysate, 1e-7 M), 0.7415; on Notum (SW620 lysate, 3e-7 M), 0.5781; at Notum (SW620 lysate, 1e-6 M), 0.4746. In addition, the “NOTUM intensity normalised to DMSO” value at Notum (SW620 lysate, 3e-6 M) came to 0.3389; on Notum (SW620 lysate, 1e-5 M), 0.2883.
With `OCCc1cn(-c2ccc(Cl)c(C(F)(F)F)c2Cl)nn1` [8b, 2-(1-(2,4-Dichloro-3-(trifluoromethyl)phenyl)-1H-1,2,3-triazol-4-yl)ethan-1-ol], the IC50 in series [1] (setting [2]) was found to be 5.7 ± 2.5 µM.
Regarding `CCOc1ccc(-n2cc(CO)nn2)cc1` [7n, ((4-Ethoxyphenyl)-1H-1,2,3-triazol-4-yl)methanol], the IC50 in series [1] (setting [2]) was found to be 78 ± 45 µM.
Regarding `Cc1cccc(-n2cc(CO)nn2)c1` [7e, ((3-Methylphenyl)-1H-1,2,3-triazol-4-yl)methanol], the “% I” value in series [1] (@10 μM) is listed as “b 40–50% I@10 μM”. Moreover, the 50% inhibitory concentration (IC50) in series [1] (setting [2]) was ~10 µM and 10 µM.
Regarding `Cc1cn(-c2ccc(Cl)c(C(F)(F)F)c2Cl)nn1` [8k, 1-(2,4-Dichloro-3-(trifluoromethyl)phenyl)-4-methyl-1H-1,2,3-triazole], in series [1], the “reduction in potency vs 7y” value amounted to 12 fold. The IC50 in series [1] (setting [2]) came to 0.11 ± 0.04 µM.
`CCOc1cccc(-n2cc(CO)nn2)c1` [7i, ((3-Ethoxyphenyl)-1H-1,2,3-triazol-4-yl)methanol]: the concentration for half-maximal inhibition (IC50) in series [1] (setting [2]) turned out to be 230 ± 20 µM.

These data come from PMC9150124, “Design of a Potent, Selective, and Brain-Penetrant Inhibitor of Wnt-Deactivating Enzyme Notum by Optimization of a Crystallographic Fragment Hit” (Journal of Medicinal Chemistry, 2022).
